# Measured values: patent publication US6737383B1, “Herbicidal oxadiazolidines” (priority 1999, dated 2004)
# How the values were obtained:
# wheat = test: Test B pre/postemergence wheat; type: in vivo, Triticum aestivum
# How it was run: (§1)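 Response is a visual 0-to-10 score relative to untreated plants, where 0 means no effect and 10 means complete control, taken twelve to sixteen days after application. Treatments went onto soil at planting and onto foliage of 1- to 4-leaf plants, using a surfactant-containing non-phytotoxic solvent.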
# surinam grass = test: Test B pre/postemergence surinam grass; type: in vivo, Brachiaria decumbens
# How it was run: as §1
# corn = test: Test B pre/postemergence corn; type: in vivo, Zea mays
# How it was run: as §1
# crabgrass = test: Test B pre/postemergence crabgrass; type: in vivo, Digitaria sanguinalis
# How it was run: as §1
# velvetleaf = test: Test B pre/postemergence velvetleaf; type: in vivo, Abutilon theophrasti
# How it was run: as §1
# rape = test: Test B pre/postemergence rape; type: in vivo, Brassica napus
# How it was run: as §1
# purple nutsedge = test: Test B pre/postemergence purple nutsedge; type: in vivo, Cyperus rotundus
# How it was run: as §1
# bedstraw = test: Test B pre/postemergence bedstraw; type: in vivo, Galium aparine
# How it was run: as §1
# duck salad = test: Test B flood test duck salad; type: in vivo, Heteranthera limosa
# How it was run: (§2)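 Read-out is a visual response score from 0 (no effect) to 10 (complete control), assigned by comparison with untreated controls. Treatment was applied at the 2-leaf stage, and plants stayed in the greenhouse for twelve to sixteen days before scoring.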
# blackgrass = test: Test B pre/postemergence blackgrass; type: in vivo, Alopecurus myosuroides
# How it was run: as §1
# pigweed = test: Test B pre/postemergence pigweed; type: in vivo, Amaranthus retroflexus
# How it was run: as §1
# wild oat = test: Test B pre/postemergence wild oat; type: in vivo, Avena fatua
# How it was run: as §1
# soybean = test: Test B pre/postemergence soybean; type: in vivo, Glycine max
# How it was run: as §1
# morningglory = test: Test B pre/postemergence morningglory; type: in vivo, Ipomoea hederacea
# How it was run: as §1
# rice = test: Test B flood test rice; type: in vivo, Oryza sativa
# How it was run: as §2
# giant foxtail = test: Test B pre/postemergence giant foxtail; type: in vivo, Setaria faberii
# How it was run: as §1
# [1] = Preemergence, Rate 62 g/ha, scale of 0 to 10 where 0 is no effect and 10 is complete control
# [2] = Preemergence, Rate 250 g/ha, scale of 0 to 10 where 0 is no effect and 10 is complete control
# [3] = Preemergence, Rate 500 g/ha, scale of 0 to 10 where 0 is no effect and 10 is complete control
# [4] = Rate 62 g/ha, Postemergence, scale of 0 to 10 where 0 is no effect and 10 is complete control
# [5] = Rate 125 g/ha, Postemergence, scale 0 to 10
# [6] = Rate 125 g/ha, Preemergence, scale of 0 to 10 where 0 is no effect and 10 is complete control
# [7] = Rate 500 g/ha, Postemergence, scale 0 to 10
# [8] = Rate 62 g/ha, headed Pre-emergence (flood test species), scale 0 to 10 (0 no effect, 10 complete control)
# [9] = Rate 125 g/ha, Pre-emergence, flood test species, scale 0 to 10 where 0 is no effect and 10 is complete control
# [10] = Rate 250 g/ha, Pre-emergence, flood-test species, scale 0 to 10, 0 is no effect, 10 is complete control
# [11] = Rate 500 g/ha, Pre-emergence, flood test species, scale 0 to 10 (0 no effect, 10 complete control)
smiles,measurement,setting,value
COC(=O)Cn1c(=O)on(C(=O)N(c2ccc(F)cc2)C(C)C)c1=O [Compound 215],Wheat plant response rating,wheat; [1],0
same,Wheat plant response rating,wheat; [2],0
same,"Plant response rating, Wheat",wheat; [3],0
same,Wheat plant response rating,wheat; [4],3
same,Wheat plant response rating,wheat; [5],3
same,Wheat plant response rating,wheat; [6],0
same,"Plant response rating (0 to 10; 0 is no effect, 10 is complete control), Wheat","wheat; Rate 250 g/ha, Postemergence",6
same,B. signalgrass plant response rating,surinam grass; [1],0
same,B. signalgrass plant response rating,"surinam grass; Preemergence, Rate 250 g/ha, scale 0 to 10, 0 is no effect, 10 is complete control",2
same,"Plant response rating, B. signalgrass",surinam grass; [3],2
same,B. signalgrass plant response rating,surinam grass; [4],0
same,B. signalgrass plant response rating,"surinam grass; Rate 125 g/ha, Postemergence, scale 0 (no effect) to 10 (complete control)",0
same,B. signalgrass plant response rating,surinam grass; [6],0
same,"Plant response rating (0 to 10; 0 is no effect, 10 is complete control), B. signalgrass","surinam grass; Rate 250 g/ha, Postemergence",3
same,B. signalgrass plant response rating,"surinam grass; Rate 500 g/ha, Postemergence, scale 0 to 10, 0 no effect, 10 complete control",3
same,Corn plant response rating,corn; [1],0
same,Corn plant response rating,corn; [2],0
same,"Plant response rating, Corn",corn; [3],2
same,Corn plant response rating,corn; [4],0
same,Corn plant response rating,corn; [5],0
same,Corn plant response rating,corn; [6],0
same,"Plant response rating (0 to 10; 0 is no effect, 10 is complete control), Corn","corn; Rate 250 g/ha, Postemergence",0
same,Corn plant response rating,corn; [7],0
same,Crabgrass plant response rating,crabgrass; [1],3
same,Crabgrass plant response rating,crabgrass; [2],4
same,"Plant response rating, Crabgrass",crabgrass; [3],4
same,Crabgrass plant response rating,crabgrass; [4],0
same,Crabgrass plant response rating,crabgrass; [5],0
same,Crabgrass plant response rating,crabgrass; [6],4
same,"Plant response rating (0 to 10; 0 is no effect, 10 is complete control), Crabgrass","crabgrass; Rate 250 g/ha, Postemergence",2
same,Crabgrass plant response rating,crabgrass; [7],2
same,Velvetleaf plant response rating,velvetleaf; [1],0
same,Velvetleaf plant response rating,velvetleaf; [2],0
same,"Plant response rating, Velvetleaf",velvetleaf; [3],0
same,Velvetleaf plant response rating,velvetleaf; [4],0
same,Velvetleaf plant response rating,velvetleaf; [5],0
same,Velvetleaf plant response rating,velvetleaf; [6],0
same,"Plant response rating (0 to 10; 0 is no effect, 10 is complete control), Velvetleaf","velvetleaf; Rate 250 g/ha, Postemergence",0
same,Rape plant response rating,rape; [1],0
same,Rape plant response rating,rape; [2],0
same,"Plant response rating, Rape",rape; [3],2
same,Rape plant response rating,rape; [4],0
same,Rape plant response rating,rape; [5],0
same,Rape plant response rating,rape; [6],0
same,"Plant response rating (0 to 10; 0 is no effect, 10 is complete control), Rape","rape; Rate 250 g/ha, Postemergence",0
same,Rape plant response rating,rape; [7],0
same,Nutsedge plant response rating,purple nutsedge; [1],0
same,Nutsedge plant response rating,purple nutsedge; [2],0
same,"Plant response rating, Nutsedge",purple nutsedge; [3],0
same,Nutsedge plant response rating,purple nutsedge; [4],0
same,Nutsedge plant response rating,purple nutsedge; [5],0
same,Nutsedge plant response rating,purple nutsedge; [6],0
same,"Plant response rating (0 to 10; 0 is no effect, 10 is complete control), Nutsedge","purple nutsedge; Rate 250 g/ha, Postemergence",0
same,Nutsedge plant response rating,purple nutsedge; [7],0
same,Bedstraw plant response rating,bedstraw; [1],0
same,Bedstraw plant response rating,bedstraw; [2],0
same,"Plant response rating, Bedstraw",bedstraw; [3],0
same,Bedstraw plant response rating,bedstraw; [4],0
same,Bedstraw plant response rating,bedstraw; [5],0
same,Bedstraw plant response rating,bedstraw; [6],0
same,"Plant response rating (0 to 10; 0 is no effect, 10 is complete control), Bedstraw","bedstraw; Rate 250 g/ha, Postemergence",6
same,Bedstraw plant response rating,bedstraw; [7],8
same,Ducksalad plant response rating,duck salad; [8],0
same,Ducksalad plant response rating,duck salad; [9],0
same,Ducksalad plant response rating,duck salad; [10],0
same,Ducksalad plant response rating,duck salad; [11],0
same,Blackgrass plant response rating,blackgrass; [1],4
same,"Plant response rating, Blackgrass",blackgrass; [3],6
same,Blackgrass plant response rating,blackgrass; [4],0
same,Blackgrass plant response rating,blackgrass; [5],0
same,Blackgrass plant response rating,blackgrass; [6],6
same,"Plant response rating (0 to 10; 0 is no effect, 10 is complete control), Blackgrass","blackgrass; Rate 250 g/ha, Postemergence",4
same,Blackgrass plant response rating,blackgrass; [7],5
same,Redroot pigweed plant response rating,pigweed; [1],4
same,Redroot pigweed plant response rating,pigweed; [2],5
same,"Plant response rating, Redroot pigweed",pigweed; [3],6
same,Redroot pigweed plant response rating,pigweed; [4],0
same,Redroot pigweed plant response rating,pigweed; [5],0
same,Redroot pigweed plant response rating,pigweed; [6],4
same,"Plant response rating (0 to 10; 0 is no effect, 10 is complete control), Redroot pigweed","pigweed; Rate 250 g/ha, Postemergence",6
same,Redroot pigweed plant response rating,pigweed; [7],6
same,Wild oats plant response rating,wild oat; [1],0
same,Wild oats plant response rating,wild oat; [2],2
same,"Plant response rating, Wild oats",wild oat; [3],2
same,Wild oats plant response rating,wild oat; [4],0
same,Wild oats plant response rating,wild oat; [5],0
same,Wild oats plant response rating,wild oat; [6],0
same,"Plant response rating (0 to 10; 0 is no effect, 10 is complete control), Wild oats","wild oat; Rate 250 g/ha, Postemergence",2
same,Soybean plant response rating,soybean; [1],0
same,Soybean plant response rating,soybean; [2],0
same,"Plant response rating, Soybean",soybean; [3],0
same,Soybean plant response rating,soybean; [4],0
same,Soybean plant response rating,soybean; [5],1
same,Soybean plant response rating,soybean; [6],0
same,"Plant response rating (0 to 10; 0 is no effect, 10 is complete control), Soybean","soybean; Rate 250 g/ha, Postemergence",1
same,Soybean plant response rating,soybean; [7],1
same,Morningglory plant response rating,morningglory; [1],0
same,Morningglory plant response rating,morningglory; [2],0
same,"Plant response rating, Morningglory",morningglory; [3],0
same,Morningglory plant response rating,morningglory; [4],0
same,Morningglory plant response rating,morningglory; [5],2
same,Morningglory plant response rating,morningglory; [6],0
same,"Plant response rating (0 to 10; 0 is no effect, 10 is complete control), Morningglory","morningglory; Rate 250 g/ha, Postemergence",3
same,Morningglory plant response rating,morningglory; [7],3
same,Rice plant response rating,rice; [8],0
same,Rice plant response rating,rice; [9],0
same,Rice plant response rating,rice; [10],0
same,Rice plant response rating,rice; [11],0
same,Giant foxtail plant response rating,giant foxtail; [1],3
same,Giant foxtail plant response rating,giant foxtail; [2],3
same,"Plant response rating, Giant foxtail",giant foxtail; [3],5
same,Giant foxtail plant response rating,giant foxtail; [4],0
same,Giant foxtail plant response rating,giant foxtail; [5],0
same,Giant foxtail plant response rating,giant foxtail; [6],3
same,"Plant response rating (0 to 10; 0 is no effect, 10 is complete control), Giant foxtail","giant foxtail; Rate 250 g/ha, Postemergence",3
same,Giant foxtail plant response rating,giant foxtail; [7],5
